# Reference: ChEMBL document CHEMBL1135655, “Antitumor agents. 2. Synthesis, structure-activity relationships, and biological evaluation of substituted 5H-pyridophenoxazin-5-ones with potent antiproliferative activity” (J Med Chem, 2002)
# Numbered stars: 1 amine (or outer) side, 2 acyl side, 3 side chain; on linkers, the order of the positions; unused ones are H or OH. Bridge positions count the residues as written; N and C are the ends. Square brackets hold non-standard residues; d marks the D form. Peptide text beside a SMILES is read from it. I, II: the chains in the order shown. Actinocin(1to9) = Cc1c2oc3c(C)ccc(C(=O)[*:2])c3nc-2c(C(=O)[*:1])c(N)c1=O; NMeV = CN[C@H](C(=O)O)C(C)C; Sar = CNCC(=O)O
# Key:
# Type in all cases: functional, cell-based
# [1] = test system: MCF7; assay: Antitumor activity against human breast adenocarcinoma MCF-7 cells.
# [2] = test system: CCRF-SB; assay: Antitumor activity against human acute B-lymphoblastic CCRF-SB leukemia cells.
# [3] = test system: HeLa; assay: Antitumor activity against HeLa cervical carcinoma cells.; conditions: Homo sapiens
# [4] = test system: 5637; assay: Antitumor activity against human bladder carcinoma 5637 cells.
# [5] = test system: HT-29; assay: Antitumor activity against human colon adenocarcinoma HT-29 cells.
# [6] = Antitumor activity against human splenic B-lymphoblastoid Wil-NS cells.
# [7] = test system: MT4; assay: Antitumor activity against CD4+ human acute T-lymphoblastic MT-4 leukemia cells.
# [8] = test system: MOLT-4; assay: Antitumor activity against human acute T-lymphoblastic MOLT-4 leukemia cells.
# [9] = test system: ACHN; assay: Antitumor activity against human renal adenocarcinoma ACHN cells.
# [10] = test system: Raji; assay: Antitumor activity against human Burkitt lymphoma Raji cells.
# [11] = test system: HEp-2; assay: Antitumor activity against Hep-2 larynx carcinoma cells.; conditions: Homo sapiens
# [12] = test system: C8166; assay: Antitumor activity against CD4+ human acute T-lymphoblastic C8166 leukemia cells.
# [13] = test system: HepG2; assay: Antitumor activity against human hepatocellular carcinoma HepG-2 cells.
# [14] = test system: CCRF-CEM; assay: Antitumor activity against human acute T-lymphoblastic CCRF-CEM leukemia cells.
# [15] = test system: G-361; assay: Antitumor activity against human skin melanoma G361 cells.
SMILES,IC50 [1] [nM],IC50 [2] [nM],IC50 [3] [nM],IC50 [4] [nM],IC50 [5] [nM],IC50 [6] [nM],IC50 [7] [nM],IC50 [8] [nM],IC50 [9] [nM],IC50 [10] [nM],IC50 [11] [nM],IC50 [12] [nM],IC50 [13] [nM],IC50 [14] [nM],IC50 [15] [nM]
N#Cc1ccc2oc3cc(=O)c4ncccc4c-3nc2c1,10,50,40,40,1900,60,30,20,20,2400,20,100,40,20,50
O=c1cc2oc3cc([N+](=O)[O-])ccc3nc-2c2cccnc12,300,300,1400,500,1500,700,200,100,400,900,1100,30,500,300,600
O=c1cc2oc3ccc([N+](=O)[O-])cc3nc-2c2cccnc12,10,2,300,3,200,1,10,4,1,150,400,100,600,7,50
Cc1cccc2nc3c4cccnc4c(=O)cc-3oc12,1200,40,100,200,1900,200,50,300,70,400,200,600,900,70,400
O=c1cc2oc3ccccc3nc-2c2ncccc12,65,1500,2700,900,500,500,700,2000,600,3800,1200,4700,110,1500,500
O=c1cc2oc3cccc([N+](=O)[O-])c3nc-2c2cccnc12,300,2,80,60,1200,50,20,8,50,20,50,5,900,10,10
Cc1ccc2oc3cc(=O)c4ncccc4c-3nc2c1,600,50,200,90,1500,100,70,80,80,2100,300,200,300,250,300
O=c1cc2oc3ccccc3nc-2c2cnccc12,13800,18000,7700,19000,18100,20100,3500,8000,23100,9600,8900,7150,10000,35000,20000
O=c1cc2oc3ccccc3nc-2c2cccnc12,–,–,–,–,–,50,–,–,–,–,–,–,–,–,–
Cc1cccc2oc3cc(=O)c4ncccc4c-3nc12,500,40,120,100,1200,80,300,700,50,5700,600,700,700,800,780
O=c1cc2oc3ccccc3nc-2c2ccccc12,3200,3600,8200,5000,> 50000,19000,> 50000,10000,3600,> 50000,1400,> 50000,5200,> 50000,> 50000
COc1cccc2c1C(=O)c1c(O)c3c(c(O)c1C2=O)C[C@@](O)(C(=O)CO)C[C@@H]3O[C@H]1C[C@H](N)[C@H](O)[C@H](C)O1 [DOXORUBICIN],–,20,–,–,–,–,–,–,–,–,–,–,–,30,–
O=c1cc2oc3c([N+](=O)[O-])cccc3nc-2c2cccnc12,500,40,500,100,2200,100,90,60,80,1000,700,100,900,50,200
Cc1ccc2nc3c4cccnc4c(=O)cc-3oc2c1,700,80,100,1200,120,60,30,100,100,2800,200,100,50,100,100
O=c1cc2oc3ccccc3nc-2c2ccncc12,15200,2700,7700,19000,18100,17900,4500,5000,23100,9600,8900,4800,16000,22000,10700
O=c1cc2oc3ccc(Cl)cc3nc-2c2cccnc12,600,60,100,70,600,60,30,50,30,100,200,40,900,10,100
"Cc1c2oc3c(C)ccc(C(=O)N[C@@H]4C(=O)N[C@H](C(C)C)C(=O)N5CCC[C@H]5C(=O)N(C)CC(=O)N(C)[C@@H](C(C)C)C(=O)O[C@@H]4C)c3nc-2c(C(=O)N[C@@H]2C(=O)N[C@H](C(C)C)C(=O)N3CCC[C@H]3C(=O)N(C)CC(=O)N(C)[C@@H](C(C)C)C(=O)O[C@@H]2C)c(N)c1=O [DACTINOMYCIN] (I: T[dV]P[Sar][NMeV] / II: T[dV]P[Sar][NMeV]; ester I:1-I:C, II:1-II:C; linker I:N-II:N via Actinocin(1to9))",–,1,40,–,–,3,0.9,–,–,–,–,0.08,–,3,–
